{
  "source": "paper PMC9976893",
  "about": "“Dynamic states of eIF6 and SDS variants modulate interactions with uL14 of the 60S ribosomal subunit” (Nucleic Acids Research, 2023)",
  "system": "full-length human eIF6",
  "assay": "Surface plasmon resonance of uL14 peptides on immobilized eIF6",
  "conditions": "BIAcore S200, eIF6 on CM5 chip, peptide 0-500 μM in 20 mM HEPES pH 7.4, 150 mM NaCl, 0.01% BSA, 0.002% Tween 20; repeated three times; non-specific binding subtracted",
  "method": "SPR analyses were carried out using a BIAcore S200 instrument (GE-Healthcare). eIF6 (50 μg/ml) was solubilized in 20 mM ammonium acetate pH 4.0 and immediately immobilized on a CM5 sensor chip (4913 Response Units [RU] using NHS/EDC chemistry). After baseline stabilization, titrations were performed by injecting increasing concentrations (0–500 μM, 1:2 dilutions) of uL14-WT ([…]), the site-specific mutant peptides, or the uL14-ΔC ([…]) peptide, solubilized in running buffer (20 mM HEPES pH 7.4, 150 mM NaCl, 0.01% BSA, and 0.002% Tween 20). At the end of each titration, a solution of 20 mM HEPES pH 7.4 and 1.5 M NaCl was used to regenerate the chip. The flow rate was 25 μl/min. Peptides were solubilized in water and their concentration determined at 280 nm using the molar extinction coefficient ϵ280 = 5500 M^−1 cm^−1. To ensure reproducibility, each experiment was repeated three times. Sensograms were corrected for baseline.\nFor SPR studies, full-length elF6 was immobilized to the surface, and the C-terminal peptide of uL14 (aa 121–140) was used in the fluid phase (Figure 2D). […] The contribution of non-specific binding of the peptide to the surface was subtracted for each sensorgram. […] It further highlighted the significance of the N135 and S138 for interaction with eIF6. […]",
  "data": [
    {"sequence": "VAKECADLWPRI [uL14-ΔC]", "values": [
      {"measurement": "binding to immobilized eIF6 (SPR)", "value": "complete loss in binding"}
    ]}
  ]
}
